# According to patent US11725011B2, “Bicyclic urea kinase inhibitors and uses thereof” (The Broad Institute, Inc., priority 2016, dated 2023):
# Tests used:
# Test in all cases: KINOMEscan
# Assay type in all cases: binding
# Conditions in all cases: 1 uM
# [1] = target: RPS6KA4 (Kin.Dom.2-C-terminal) (Homo sapiens (Human), UniProt O75676)
# [2] = target: RIOK3 (Homo sapiens (Human), UniProt O14730)
# [3] = target: YANK3 (Homo sapiens (Human), UniProt Q86UX6)
# [4] = target: MARK1 (Homo sapiens (Human), UniProt Q9P0L2)
# [5] = target: CTK (Homo sapiens (Human), UniProt P42679)
# CTK, sequence (P42679 whole entry): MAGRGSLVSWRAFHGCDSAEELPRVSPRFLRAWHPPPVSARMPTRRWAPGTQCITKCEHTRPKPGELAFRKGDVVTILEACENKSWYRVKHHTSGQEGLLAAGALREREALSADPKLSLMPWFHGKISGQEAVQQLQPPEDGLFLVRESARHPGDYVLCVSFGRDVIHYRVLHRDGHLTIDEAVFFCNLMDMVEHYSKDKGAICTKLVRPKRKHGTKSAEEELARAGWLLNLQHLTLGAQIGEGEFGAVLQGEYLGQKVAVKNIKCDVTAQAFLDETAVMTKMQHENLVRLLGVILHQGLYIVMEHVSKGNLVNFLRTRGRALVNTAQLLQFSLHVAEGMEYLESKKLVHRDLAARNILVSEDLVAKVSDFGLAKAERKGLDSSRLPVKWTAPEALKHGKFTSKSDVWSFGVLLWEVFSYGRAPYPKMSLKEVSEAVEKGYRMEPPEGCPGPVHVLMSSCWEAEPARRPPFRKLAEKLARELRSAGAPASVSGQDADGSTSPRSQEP
# [6] = target: CDC2L2 (Homo sapiens (Human), UniProt Q9UQ88)
# [7] = target: CDK11 (Homo sapiens (Human), UniProt Q9BWU1)
# [8] = target: CAMK2D (Homo sapiens (Human), UniProt Q13557)
# [9] = target: DMPK2 (Homo sapiens (Human), UniProt Q6DT37)
# [10] = target: ALK (C1156Y) (Homo sapiens (Human), UniProt Q9UM73, C1156Y)
# [11] = target: PIK3CA (M1043I) (Homo sapiens (Human), UniProt P42336, M1043I)
# PIK3CA (M1043I), sequence (P42336 whole entry M1043I): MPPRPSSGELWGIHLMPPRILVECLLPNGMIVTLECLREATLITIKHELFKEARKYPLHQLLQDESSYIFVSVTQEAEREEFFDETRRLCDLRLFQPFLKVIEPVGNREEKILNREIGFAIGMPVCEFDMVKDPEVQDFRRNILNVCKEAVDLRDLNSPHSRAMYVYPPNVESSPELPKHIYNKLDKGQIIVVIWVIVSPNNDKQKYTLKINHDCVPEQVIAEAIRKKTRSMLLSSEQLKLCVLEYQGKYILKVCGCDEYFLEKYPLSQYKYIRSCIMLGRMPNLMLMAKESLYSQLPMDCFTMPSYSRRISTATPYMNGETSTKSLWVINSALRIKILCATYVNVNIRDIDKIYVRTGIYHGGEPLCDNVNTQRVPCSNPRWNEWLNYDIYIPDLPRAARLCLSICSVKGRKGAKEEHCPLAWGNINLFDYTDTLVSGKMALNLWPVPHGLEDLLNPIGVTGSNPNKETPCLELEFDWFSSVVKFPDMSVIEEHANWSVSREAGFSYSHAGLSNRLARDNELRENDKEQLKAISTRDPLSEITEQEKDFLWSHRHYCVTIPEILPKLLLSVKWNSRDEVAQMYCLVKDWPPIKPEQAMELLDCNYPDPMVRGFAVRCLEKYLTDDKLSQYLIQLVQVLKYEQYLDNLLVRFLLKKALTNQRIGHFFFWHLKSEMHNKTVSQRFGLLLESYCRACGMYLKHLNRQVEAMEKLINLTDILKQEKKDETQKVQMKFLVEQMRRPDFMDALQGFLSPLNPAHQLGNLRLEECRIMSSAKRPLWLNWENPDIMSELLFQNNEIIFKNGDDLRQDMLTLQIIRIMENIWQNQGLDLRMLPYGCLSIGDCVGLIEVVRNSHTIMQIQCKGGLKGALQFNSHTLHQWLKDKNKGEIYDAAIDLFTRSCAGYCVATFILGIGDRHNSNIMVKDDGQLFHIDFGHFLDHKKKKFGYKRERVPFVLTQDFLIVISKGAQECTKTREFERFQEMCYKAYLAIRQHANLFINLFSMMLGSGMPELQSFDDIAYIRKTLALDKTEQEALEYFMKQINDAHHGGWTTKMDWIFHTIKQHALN
# [12] = target: ROS1 (Homo sapiens (Human), UniProt P08922)
# [13] = target: MARK4 (Homo sapiens (Human), UniProt Q96L34)
# [14] = target: CAMK1 (Homo sapiens (Human), UniProt Q14012)
# [15] = target: RPS6KA5 (Kin.Dom.1-N-terminal) (Homo sapiens (Human), UniProt O75582)
# RPS6KA5 (Kin.Dom.1-N-terminal), sequence (O75582 49-318): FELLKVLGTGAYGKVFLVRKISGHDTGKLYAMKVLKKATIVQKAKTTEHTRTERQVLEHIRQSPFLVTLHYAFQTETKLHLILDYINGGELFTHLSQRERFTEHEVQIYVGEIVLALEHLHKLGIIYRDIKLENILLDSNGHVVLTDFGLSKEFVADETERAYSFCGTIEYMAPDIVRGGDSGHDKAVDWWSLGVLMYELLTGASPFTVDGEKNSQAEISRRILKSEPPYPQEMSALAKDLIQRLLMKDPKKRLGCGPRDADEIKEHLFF
# [16] = target: SGK2 (Homo sapiens (Human), UniProt Q9HBY8)
# SGK2, sequence (Q9HBY8 whole entry): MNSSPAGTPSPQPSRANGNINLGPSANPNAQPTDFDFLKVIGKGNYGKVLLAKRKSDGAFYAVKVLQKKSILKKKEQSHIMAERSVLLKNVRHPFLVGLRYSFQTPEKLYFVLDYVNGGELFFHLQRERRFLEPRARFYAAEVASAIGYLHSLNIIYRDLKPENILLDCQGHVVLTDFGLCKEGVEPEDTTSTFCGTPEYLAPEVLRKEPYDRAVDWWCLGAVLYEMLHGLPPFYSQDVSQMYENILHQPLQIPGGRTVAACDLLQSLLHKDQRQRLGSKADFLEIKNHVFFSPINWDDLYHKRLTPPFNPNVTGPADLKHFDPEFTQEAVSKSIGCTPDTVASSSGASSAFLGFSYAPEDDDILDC
# [17] = target: CDK4-cyclinD3 (Homo sapiens (Human), UniProt P11802)
# [18] = target: MAP3K3 (Homo sapiens (Human), UniProt Q99759)
# [19] = target: TRKB (Homo sapiens (Human), UniProt Q16620)
# [20] = target: CDK3 (Homo sapiens (Human), UniProt Q00526)
# [21] = target: CDK2 (Homo sapiens (Human), UniProt P24941)
# [22] = target: TXK (Homo sapiens (Human), UniProt P42681)
# [23] = target: ERBB2 (Homo sapiens (Human), UniProt P04626)
# [24] = target: IGF1R (Homo sapiens (Human), UniProt P08069)
# IGF1R, sequence (P08069 31-1367): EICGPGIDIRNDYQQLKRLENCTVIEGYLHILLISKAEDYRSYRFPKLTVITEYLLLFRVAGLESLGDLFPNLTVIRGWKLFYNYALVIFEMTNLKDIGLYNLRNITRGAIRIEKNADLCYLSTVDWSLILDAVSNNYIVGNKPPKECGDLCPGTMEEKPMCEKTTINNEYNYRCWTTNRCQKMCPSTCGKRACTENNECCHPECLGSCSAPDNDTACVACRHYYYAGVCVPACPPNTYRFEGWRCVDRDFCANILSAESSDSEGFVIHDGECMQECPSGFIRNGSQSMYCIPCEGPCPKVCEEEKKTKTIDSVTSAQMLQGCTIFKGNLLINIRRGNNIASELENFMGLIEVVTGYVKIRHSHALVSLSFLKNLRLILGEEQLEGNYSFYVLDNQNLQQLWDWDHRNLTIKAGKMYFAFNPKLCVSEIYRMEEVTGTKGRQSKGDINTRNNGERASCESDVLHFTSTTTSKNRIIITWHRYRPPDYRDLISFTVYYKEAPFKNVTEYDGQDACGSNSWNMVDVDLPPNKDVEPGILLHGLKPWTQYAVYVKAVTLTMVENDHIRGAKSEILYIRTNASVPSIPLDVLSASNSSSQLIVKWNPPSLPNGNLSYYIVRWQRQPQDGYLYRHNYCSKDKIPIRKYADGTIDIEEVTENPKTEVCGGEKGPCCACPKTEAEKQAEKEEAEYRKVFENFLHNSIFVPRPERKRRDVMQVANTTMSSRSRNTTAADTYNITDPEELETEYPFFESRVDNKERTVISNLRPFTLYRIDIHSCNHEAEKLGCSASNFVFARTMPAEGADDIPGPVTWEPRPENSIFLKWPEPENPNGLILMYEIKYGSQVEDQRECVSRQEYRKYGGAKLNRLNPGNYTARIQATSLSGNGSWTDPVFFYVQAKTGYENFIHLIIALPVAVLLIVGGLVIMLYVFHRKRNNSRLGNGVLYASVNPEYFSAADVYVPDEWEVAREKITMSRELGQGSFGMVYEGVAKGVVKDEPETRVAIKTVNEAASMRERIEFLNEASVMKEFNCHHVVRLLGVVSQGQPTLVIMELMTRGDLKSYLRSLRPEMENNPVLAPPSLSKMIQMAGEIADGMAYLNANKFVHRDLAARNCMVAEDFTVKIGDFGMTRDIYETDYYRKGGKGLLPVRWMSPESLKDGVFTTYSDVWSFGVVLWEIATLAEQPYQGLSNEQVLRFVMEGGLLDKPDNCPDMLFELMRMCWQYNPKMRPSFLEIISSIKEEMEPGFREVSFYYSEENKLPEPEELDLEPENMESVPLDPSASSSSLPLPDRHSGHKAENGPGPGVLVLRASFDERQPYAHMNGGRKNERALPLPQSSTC
# [25] = target: PIK3CD (Homo sapiens (Human), UniProt O00329)
# [26] = target: MEK1 (Homo sapiens (Human), UniProt Q02750)
# [27] = target: STK39 (Homo sapiens (Human), UniProt Q9UEW8)
# [28] = target: NEK10 (Homo sapiens (Human), UniProt Q6ZWH5)
# [29] = target: CSF1R (Homo sapiens (Human), UniProt P07333)
# [30] = target: DCAMKL2 (Homo sapiens (Human), UniProt Q8N568)
# DCAMKL2, sequence (Q8N568 whole entry, looked up): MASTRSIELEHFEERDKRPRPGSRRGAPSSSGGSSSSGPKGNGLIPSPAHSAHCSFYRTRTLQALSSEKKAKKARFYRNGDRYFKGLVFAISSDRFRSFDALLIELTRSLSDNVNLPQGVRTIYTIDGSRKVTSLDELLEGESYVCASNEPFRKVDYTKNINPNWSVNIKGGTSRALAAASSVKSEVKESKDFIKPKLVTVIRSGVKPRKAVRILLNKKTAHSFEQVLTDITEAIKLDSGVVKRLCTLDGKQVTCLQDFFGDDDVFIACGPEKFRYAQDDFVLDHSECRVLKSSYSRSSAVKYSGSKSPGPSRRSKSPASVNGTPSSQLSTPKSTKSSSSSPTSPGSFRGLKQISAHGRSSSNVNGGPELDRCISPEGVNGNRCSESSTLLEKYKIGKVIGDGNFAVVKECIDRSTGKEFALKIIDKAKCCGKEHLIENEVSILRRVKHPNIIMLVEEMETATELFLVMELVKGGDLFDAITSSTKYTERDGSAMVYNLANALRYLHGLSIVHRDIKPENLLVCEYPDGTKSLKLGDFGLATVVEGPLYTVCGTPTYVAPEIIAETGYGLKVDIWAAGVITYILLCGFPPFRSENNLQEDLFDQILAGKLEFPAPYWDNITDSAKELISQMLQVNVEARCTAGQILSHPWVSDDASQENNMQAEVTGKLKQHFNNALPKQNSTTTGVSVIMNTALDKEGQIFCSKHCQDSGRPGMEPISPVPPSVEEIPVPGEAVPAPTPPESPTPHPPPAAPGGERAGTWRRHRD
# [31] = target: TAOK3 (Homo sapiens (Human), UniProt Q9H2K8)
# [32] = target: MAP3K1 (Homo sapiens (Human), UniProt Q13233)
# [33] = target: CIT (Homo sapiens (Human), UniProt O14578)
# [34] = target: BRAF (Homo sapiens (Human), UniProt P15056)
# [35] = target: STK36 (Homo sapiens (Human), UniProt Q9NRP7)
# [36] = target: MAP4K4 (Homo sapiens (Human), UniProt O95819)
# [37] = target: EIF2AK1 (Homo sapiens (Human), UniProt Q9BQI3)
# [38] = target: PRKD1 (Homo sapiens (Human), UniProt Q15139)
# [39] = target: MLK3 (Homo sapiens (Human), UniProt Q16584)
# [40] = target: FYN (Homo sapiens (Human), UniProt P06241)
# [41] = target: TRKA (Homo sapiens (Human), UniProt P04629)
# YANK3, sequence (Q86UX6 whole entry): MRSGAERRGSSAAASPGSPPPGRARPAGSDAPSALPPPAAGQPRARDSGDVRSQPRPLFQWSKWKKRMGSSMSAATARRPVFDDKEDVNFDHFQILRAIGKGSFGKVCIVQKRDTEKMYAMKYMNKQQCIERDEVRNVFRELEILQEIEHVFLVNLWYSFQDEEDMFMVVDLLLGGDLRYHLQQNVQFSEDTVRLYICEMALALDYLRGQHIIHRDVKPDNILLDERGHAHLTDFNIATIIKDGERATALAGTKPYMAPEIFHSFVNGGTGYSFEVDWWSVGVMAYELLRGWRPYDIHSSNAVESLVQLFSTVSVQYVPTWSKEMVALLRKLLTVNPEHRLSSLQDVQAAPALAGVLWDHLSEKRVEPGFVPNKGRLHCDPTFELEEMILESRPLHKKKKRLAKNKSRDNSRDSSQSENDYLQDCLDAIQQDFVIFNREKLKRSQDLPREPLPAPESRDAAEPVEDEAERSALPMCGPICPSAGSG
smiles,measurement,setting,value
COc1ccc(N2C(=O)N(c3c(C)cccc3C)Cc3cnc(Nc4ccc(N5CCN(C)CC5)cc4)nc32)c(OC)c1 [HG-11-136-01],KINOMEscan RPS6KA4 (Kin.Dom.2-C-terminal),[1],90
same,KINOMEscan RIOK3,[2],25
same,KINOMEscan YANK3,[3],32
same,KINOMEscan MARK1,[4],5.1
same,KINOMEscan CTK,[5],33
same,KINOMEscan CDC2L2,[6],83
same,KINOMEscan CDK11,[7],89
same,KINOMEscan CAMK2D,[8],100
same,KINOMEscan DMPK2,[9],1.6
same,KINOMEscan ALK (C1156Y),[10],12
same,KINOMEscan PIK3CA (M1043I),[11],64
same,KINOMEscan ROS1,[12],63
same,KINOMEscan MARK4,[13],32
same,KINOMEscan CAMK1,[14],82
same,KINOMEscan RPS6KA5 (Kin.Dom.1-N-terminal),[15],100
same,KINOMEscan SGK2,[16],76
same,KINOMEscan CDK4-cyclinD3,[17],26
same,KINOMEscan MAP3K3,[18],0.1
same,KINOMEscan TRKB,[19],63
same,KINOMEscan CDK3,[20],100
same,KINOMEscan CDK2,[21],97
same,KINOMEscan TXK,[22],0.25
same,KINOMEscan ERBB2,[23],0
same,KINOMEscan IGF1R,[24],100
same,KINOMEscan PIK3CD,[25],72
same,KINOMEscan MEK1,[26],0.55
same,KINOMEscan STK39,[27],28
same,KINOMEscan NEK10,[28],9.6
same,KINOMEscan CSF1R,[29],0.35
same,KINOMEscan DCAMKL2,[30],88
same,KINOMEscan TAOK3,[31],1.8
same,KINOMEscan MAP3K1,[32],73
same,KINOMEscan CIT,[33],58
same,KINOMEscan BRAF,[34],26
same,KINOMEscan STK36,[35],0
same,KINOMEscan MAP4K4,[36],17
same,KINOMEscan EIF2AK1,[37],93
same,KINOMEscan PRKD1,[38],3.6
same,KINOMEscan MLK3,[39],28
same,KINOMEscan FYN,[40],0.35
same,KINOMEscan TRKA,[41],41
